Series [1] is described as follows: Human liver microsome stability assay. Type of series: in vitro ADME. The note with it: both sexes, human, microsomes, pH 7.4.
In series [2] the target is human BRD4 first bromodomain (BDI_K57-E168) (Homo sapiens (Human), UniProt O60885). Nature of the series: TR-FRET bromodomain binding assay, BRD4 first bromodomain. (TR-FRET usually uses a lanthanide donor and a delayed reading to cut background.)
Series [3] can be described thus: Mouse liver microsome stability assay. Type of series: in vitro ADME. The note with it: male, CD1, mouse, microsomes, pH 7.4. Background: Liver microsomes are a subcellular fraction often used to study metabolism.
Series [4] concerns the target human BRD4 second bromodomain (BDII_E352-M457) (Homo sapiens (Human), UniProt O60885). Nature of the series: TR-FRET bromodomain binding assay, BRD4 second bromodomain.
Series [5] can be described thus: Rat liver microsome stability assay. The note with it: rat liver microsomes (male Sprague-Dawley), 0.5 μM test compound, 0.25 mg/mL microsomal protein, pH 7.4, 37° C.; read-out: Stability in rat liver microsomes (t1/2 in minutes). The series is classed as in vitro ADME.
Series [6] deals with breast cancer cell line MX-1. Put plainly: MX-1 cell line proliferation assay. The series is classed as cell-based, human. The following applies: Homo sapiens, MX1, 72 h; MX-1 cells, 3-day proliferation, Cell Titer Glo; read-out: Cellular proliferation: EC50. (In general: ATP-based viability assays read luminescence as a measure of living cells.)

Molecules are shown by their SMILES.

Usually Ki stands for the equilibrium dissociation constant of an inhibitor or competing ligand from its target. A lower Ki goes with a stronger hold on the target.

As to `CN(C)C1CCN(S(=O)(=O)c2ccc(OCC3CC3)c(-c3cn(C)c(=O)c4[nH]ccc34)c2)C1` (stereo not drawn) [Example 310, 4-[2-(cyclopropylmethoxy)-5-{[3-(dimethylamino)pyrrolidin-1-yl]sulfonyl}phenyl]-6-methyl-1,6-dihydro-7H-pyrrolo[2,3-c]pyridin-7-one], the half-life at 0.5 μM in series [1] is 8 min; in series [3], 9 min; in series [5], 5 min. Besides, the values for the Ki in series [2] and in series [4] were 40.9 nM and 71.1 nM, respectively. Besides, in series [6], the EC50 came out at 103 nM.
In the case of `Cn1cc(-c2cc(S(C)(=O)=O)ccc2OC[C@@H]2CCC(=O)N2)c2cc[nH]c2c1=O` [Example 228, 6-methyl-4-[5-(methylsulfonyl)-2-{[(2S)-5-oxopyrrolidin-2-yl]methoxy}phenyl]-1,6-dihydro-7H-pyrrolo[2,3-c]pyridin-7-one], the half-life at 0.5 μM in series [1] is greater than 120 min; in series [3], greater than 120 min; in series [5], 107 min. Also, the Ki in series [2] was 39 nM; in series [4] it was 108 nM. The EC50 in series [6] is greater than 3000 nM.
Turning to `CCS(=O)(=O)Nc1ccc(OCC2CC2)c(-c2cn(C)c(=O)c3[nH]ccc23)c1C` [Example 251, N-[4-(cyclopropylmethoxy)-2-methyl-3-(6-methyl-7-oxo-6,7-dihydro-1H-pyrrolo[2,3-c]pyridin-4-yl)phenyl]ethanesulfonamide], the half-life at 0.5 μM in series [1] came to 118 min; in series [3], 44 min; in series [5] it was 23 min. The results for the Ki in series [2] and in series [4] were 63.1 nM and 171 nM, respectively. The EC50 in series [6] is 573 nM.
`Cn1cc(-c2cc(NS(C)(=O)=O)cnc2Oc2ccccc2)c2cc[nH]c2c1=O` [Example 23, N-[5-(6-methyl-7-oxo-6,7-dihydro-1H-pyrrolo[2,3-c]pyridin-4-yl)-6-phenoxypyridin-3-yl]methanesulfonamide]: the values for the half-life at 0.5 μM in series [1], in series [3] and in series [5] were 64 min, greater than 120 min and 11 min, respectively. Besides, the Ki in series [2] came out at 1.2 nM; in series [4] it was 0.75 nM. Also, the EC50 in series [6] is 45.9 nM.
For the compound `CNS(=O)(=O)Nc1ccc(OC2CCC(F)(F)CC2)c(-c2cn(C)c(=O)c3[nH]ccc23)c1` [Example 104, N-{4-[(4,4-difluorocyclohexyl)oxy]-3-(6-methyl-7-oxo-6,7-dihydro-1H-pyrrolo[2,3-c]pyridin-4-yl)phenyl}-N′-methylsulfuric diamide], the half-life at 0.5 μM in series [1] was found to be 27 min; in series [3] it was 7 min; in series [5], 8 min. For the same compound, the Ki in series [2] was determined as 4.4 nM; in series [4], 17.9 nM. Further, the EC50 in series [6] was determined as 65.3 nM.
In the case of `Cn1cc(-c2cc(NS(=O)(=O)CCN3CCOCC3)ccc2Oc2ccc(F)cc2F)c2cc[nH]c2c1=O` [Example 295, N-[4-(2,4-difluorophenoxy)-3-(6-methyl-7-oxo-6,7-dihydro-1H-pyrrolo[2,3-c]pyridin-4-yl)phenyl]-2-(morpholin-4-yl)ethanesulfonamide], the half-life at 0.5 μM in series [1] came to 7 min; in series [3] it was 3 min; in series [5] it was 15 min. The Ki in series [2] was 27.9 nM; in series [4], 30.7 nM. For the same compound, in series [6], the EC50 is 223 nM.
Regarding `Cn1cc(-c2cc(S(=O)(=O)N3CCc4ccccc43)ccc2OCC2CC2)c2cc[nH]c2c1=O` [Example 305, 4-[2-(cyclopropylmethoxy)-5-(2,3-dihydro-1H-indol-1-ylsulfonyl)phenyl]-6-methyl-1,6-dihydro-7H-pyrrolo[2,3-c]pyridin-7-one], the figures for the half-life at 0.5 μM in series [1], in series [3] and in series [5] were 1 min, 2 min and 2 min, respectively. Also, the values for the Ki in series [2] and in series [4] were 327 nM and 25.7 nM, respectively. The EC50 in series [6] was 110 nM.
`Cn1nc(-c2cc(N)ccc2Oc2ccc(F)cc2F)c2cc[nH]c2c1=O` [Example 148, 4-[5-amino-2-(2,4-difluorophenoxy)phenyl]-6-methyl-1,6-dihydro-7H-pyrrolo[2,3-d]pyridazin-7-one]: the results for the half-life at 0.5 μM in series [1], in series [3] and in series [5] were 58 min, 6 min and 2 min, respectively. For the same compound, the Ki turned out to be 205 nM in series [2] and 152 nM in series [4]. For the same compound, the EC50 in series [6] was determined as 740 nM.
With `CCNC(=O)c1cc2c(-c3cc(S(C)(=O)=O)ccc3Oc3ccc(F)cc3F)cn(C)c(=O)c2[nH]1` [Example 253, 4-[2-(2,4-difluorophenoxy)-5-(methylsulfonyl)phenyl]-N-ethyl-6-methyl-7-oxo-6,7-dihydro-1 H-pyrrolo[2,3-c]pyridine-2-carboxamide], the half-life at 0.5 μM in series [1] was determined as 72 min; in series [3] it was 90 min; in series [5], 110 min. In addition, the results for the Ki in series [2] and in series [4] were 20.4 nM and 1.2 nM, respectively. In addition, the EC50 in series [6] is 145 nM.
Turning to `Cn1cc(-c2cc(S(N)(=O)=O)ccc2Oc2ccccc2)c2cc[nH]c2c1=O` [Example 95, 3-(6-methyl-7-oxo-6,7-dihydro-1H-pyrrolo[2,3-c]pyridin-4-yl)-4-phenoxybenzenesulfonamide], the half-life at 0.5 μM in series [1] was greater than 120 min; in series [3] it was 36 min; in series [5], 7 min. Also, the Ki in series [2] stood at 8.7 nM; in series [4], 1.1 nM. Further, the EC50 in series [6] came out at 56 nM.
For `Cn1cc(-c2cc(CNC(=O)CCC(=O)O)ccc2Oc2ccccc2)c2cc[nH]c2c1=O` [Example 42, 4-{[3-(6-methyl-7-oxo-6,7-dihydro-1H-pyrrolo[2,3-c]pyridin-4-yl)-4-phenoxybenzyl]amino}-4-oxobutanoic acid], the half-life at 0.5 μM in series [1], in series [3] and in series [5] was greater than 120 min in each case. Further, the Ki in series [2] came to 54.6 nM; in series [4] it was 93.4 nM. Moreover, the EC50 in series [6] was greater than 3000 nM.
For the compound `Cn1cc(-c2cc(S(=O)(=O)N3CCCC3)ccc2OCC2CC2(F)F)c2cc[nH]c2c1=O` (stereo not drawn) [Example 307, 4-{2-[(2,2-difluorocyclopropyl)methoxy]-5-(pyrrolidin-1-ylsulfonyl)phenyl}-6-methyl-1,6-dihydro-7H-pyrrolo[2,3-c]pyridin-7-one], the half-life at 0.5 μM was 3 min in series [1], 2 min in series [3] and 3 min in series [5]. Also, the Ki amounted to 2.4 nM in series [2] and 2.9 nM in series [4]. In addition, the EC50 in series [6] turned out to be 122 nM.
Turning to `CCCS(=O)(=O)Nc1ccc(Oc2ccc(C#N)cc2)c(-c2cn(C)c(=O)c3[nH]ccc23)c1` [Example 93, N-[4-(4-cyanophenoxy)-3-(6-methyl-7-oxo-6,7-dihydro-1H-pyrrolo[2,3-c]pyridin-4-yl)phenyl]propane-1-sulfonamide], the half-life at 0.5 μM turned out to be 54 min in series [1], 25 min in series [3] and 102 min in series [5]. Also, the figures for the Ki in series [2] and in series [4] were 7.6 nM and 32.2 nM, respectively. The EC50 in series [6] was found to be 120 nM.
On to `CN(C)S(=O)(=O)Nc1ccc(Oc2ccccc2)c(-c2cn(C)c(=O)c3[nH]ccc23)c1` [Example 22, N,N-dimethyl-N′-[3-(6-methyl-7-oxo-6,7-dihydro-1H-pyrrolo[2,3-c]pyridin-4-yl)-4-phenoxyphenyl]sulfuric diamide], for which the values for the half-life at 0.5 μM in series [1], in series [3] and in series [5] were 32 min, 10.7 min and 3 min, respectively. Besides, the Ki is 2.2 nM in series [2] and 1 nM in series [4]. For the same compound, the EC50 in series [6] is 65.2 nM.
Consider `Cn1cc(-c2cc(NS(C)(=O)=O)ccc2Oc2ccc(C#N)cc2)c2cc[nH]c2c1=O` [Example 33, N-[4-(4-cyanophenoxy)-3-(6-methyl-7-oxo-6,7-dihydro-1H-pyrrolo[2,3-c]pyridin-4-yl)phenyl]methanesulfonamide], for which the half-life at 0.5 μM in series [1] was greater than 120 min; in series [3] it was 46 min; in series [5] it was greater than 120 min. The Ki stood at 2.6 nM in series [2] and 4.8 nM in series [4]. For the same compound, the EC50 in series [6] was 41.7 nM.
Regarding `Cn1cc(-c2cc(-c3cccc(C#N)c3)ccc2OCC2CC2)c2cc[nH]c2c1=O` [Example 353, 4′-(cyclopropylmethoxy)-3′-(6-methyl-7-oxo-6,7-dihydro-1H-pyrrolo[2,3-c]pyridin-4-yl)biphenyl-3-carbonitrile], the half-life at 0.5 μM was found to be 40 min in series [1], 10 min in series [3] and 8 min in series [5]. Also, the values for the Ki in series [2] and in series [4] were 158 nM and 256 nM, respectively. Also, the EC50 in series [6] turned out to be 786 nM.
With `CCS(=O)(=O)Nc1ccc(OCC2CC2)c(-c2cn(C)c(=O)c3[nH]ccc23)c1` [Example 145, N-[4-(cyclopropylmethoxy)-3-(6-methyl-7-oxo-6,7-dihydro-1H-pyrrolo[2,3-c]pyridin-4-yl)phenyl]ethanesulfonamide], the half-life at 0.5 μM was greater than 120 min in series [1], 16 min in series [3] and 12 min in series [5]. In addition, the results for the Ki in series [2] and in series [4] were 2.7 nM and 5.6 nM, respectively. In addition, the EC50 in series [6] worked out at 26.4 nM.
In the case of `Cn1cc(-c2cc(S(=O)(=O)N3CCOCC3)ccc2Oc2ccc(F)cc2F)c2cc[nH]c2c1=O` [Example 293, 4-[2-(2,4-difluorophenoxy)-5-(morpholin-4-ylsulfonyl)phenyl]-6-methyl-1,6-dihydro-7H-pyrrolo[2,3-c]pyridin-7-one], the half-life at 0.5 μM in series [1] was determined as 4 min; in series [3], 3 min; in series [5], 9 min. Further, the Ki in series [2] amounted to 180 nM; in series [4] it was 19.3 nM. Moreover, the EC50 in series [6] is 381 nM.

Values taken from US9296741B2, “Bromodomain inhibitors” (priority 2012, dated 2016).
